In patent US10294202B2, “Pyrrolidinones as herbicides” (FMC Corporation, priority 2013, dated 2019):

Legend:
sedge, umbrella = assay: Test B flooded paddy test; format: in vivo, Cyperus difformis; settings: Flood, scale of 0 to 100 where 0 is no effect and 100 is complete control
Outline: (§1)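 Scored visually 0–100 (0 no effect, 100 complete control) versus controls after 13 to 15 greenhouse days. Treatment: compound added to paddy water kept 3 cm above soil, on 2-leaf-stage plants.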

crabgrass, large = assay: Test A pre-/postemergence herbicide test; format: in vivo, Digitaria sanguinalis
Outline: (§2)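 Approximately 10 days after treatment in the greenhouse, plants were compared with untreated controls and given a 0–100 visual injury rating. Applications: preemergence directed soil spray; postemergence on 2–10 cm plants at the one- to two-leaf stage.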

corn = assay: Test A pre-/postemergence herbicide test; format: in vivo, Zea mays
Outline: as §2

pigweed = assay: Test A pre-/postemergence herbicide test; format: in vivo, Amaranthus retroflexus
Outline: as §2

wheat = assay: Test A pre-/postemergence herbicide test; format: in vivo, Triticum aestivum
Outline: as §2

ducksalad = assay: Test B flooded paddy test; format: in vivo, Heteranthera limosa; settings: Flood, scale of 0 to 100 where 0 is no effect and 100 is complete control
Outline: as §1

morningglory = assay: Test A pre-/postemergence herbicide test; format: in vivo, Ipomoea spp.
Outline: as §2

giant foxtail = assay: Test A pre-/postemergence herbicide test; format: in vivo, Setaria faberii
Outline: as §2

rice = assay: Test B flooded paddy test; format: in vivo, Oryza sativa; settings: Flood, scale of 0 to 100 where 0 is no effect and 100 is complete control
Outline: as §1

barnyardgrass [1] = assay: Test B flooded paddy test; format: in vivo, Echinochloa crus-galli; settings: Flood, scale of 0 to 100 where 0 is no effect and 100 is complete control
Outline: as §1

barnyardgrass [2] = assay: Test A pre-/postemergence herbicide test; format: in vivo, Echinochloa crus-galli
Outline: as §2

velvetleaf = assay: Test A pre-/postemergence herbicide test; format: in vivo, Abutilon theophrasti
Outline: as §2

[3] = 125 g ai/ha, visual rating, 0 to 100 scale, 0 no effect, 100 complete control, approximately 10 days, preemergence
[4] = Postemergence, 125 g ai/ha, 0 to 100 scale, 0 is no effect, 100 is complete control
[5] = preemergence, 500 g ai/ha, 0 to 100 scale, 0 is no effect and 100 is complete control
[6] = Postemergence, 125 g ai/ha, 0 to 100 scale, 0 no effect, 100 complete control
[7] = Postemergence, 500 g ai/ha, 0 to 100 scale (0 no effect, 100 complete control)
[8] = Preemergence, 125 g ai/ha, visual rating on 0 to 100 scale (0 no effect, 100 complete control)
[9] = preemergence, 500 g ai/ha, 0 to 100 scale
[10] = Preemergence, 125 g ai/ha, 0 to 100 scale where 0 is no effect and 100 is complete control
[11] = Postemergence, 125 g ai/ha, visual rating on 0 to 100 scale (0 no effect, 100 complete control), approx. 10 days

## COc1ccc(C2CNC(=O)C2C(=O)Nc2ccccc2F)cc1F (racemic) [Compound 197]
sedge, umbrella; 250 g ai/ha
  Plant response rating, Sedge, Umbrella: 0
sedge, umbrella; 1000 g ai/ha
  Plant response rating, Sedge, Umbrella: 0
crabgrass, large; [3]
  Plant response rating, Crabgrass, Large: 80
crabgrass, large; [4]
  Plant response rating, Crabgrass, Large: 50
crabgrass, large; Postemergence, 500 g ai/ha
  Crabgrass, Large plant response rating (0 to 100 scale, 0 is no effect, 100 is complete control): 70
crabgrass, large; [5]
  Plant response rating, Crabgrass, Large: 100
corn; [3]
  Plant response rating, Corn: 0
corn; [4]
  Plant response rating, Corn: 0
corn; Postemergence, 500 g ai/ha
  Corn plant response rating (0 to 100 scale, 0 is no effect, 100 is complete control): 0
corn; [5]
  Plant response rating, Corn: 0
pigweed; [3]
  Plant response rating, Pigweed: 0
pigweed; [4]
  Plant response rating, Pigweed: 0
pigweed; Postemergence, 500 g ai/ha
  Pigweed plant response rating (0 to 100 scale, 0 is no effect, 100 is complete control): 0
pigweed; [5]
  Plant response rating, Pigweed: 0
wheat; [3]
  Plant response rating, Wheat: 0
wheat; [4]
  Plant response rating, Wheat: 0
wheat; Postemergence, 500 g ai/ha
  Wheat plant response rating (0 to 100 scale, 0 is no effect, 100 is complete control): 0
wheat; [5]
  Plant response rating, Wheat: 0
ducksalad; 250 g ai/ha
  Plant response rating, Ducksalad: 0
ducksalad; 1000 g ai/ha
  Plant response rating, Ducksalad: 75
morningglory; [3]
  Plant response rating, Morningglory: 0
morningglory; [4]
  Plant response rating, Morningglory: 0
morningglory; Postemergence, 500 g ai/ha
  Morningglory plant response rating (0 to 100 scale, 0 is no effect, 100 is complete control): 10
morningglory; [5]
  Plant response rating, Morningglory: 0
Giant foxtail; [3]
  Plant response rating, Foxtail, Giant: 30
Giant foxtail; [4]
  Plant response rating, Foxtail, Giant: 0
Giant foxtail; Postemergence, 500 g ai/ha
  Foxtail, Giant plant response rating (0 to 100 scale, 0 is no effect, 100 is complete control): 40
Giant foxtail; [5]
  Plant response rating, Foxtail, Giant: 80
rice; 250 g ai/ha
  Plant response rating, Rice: 0
rice; 1000 g ai/ha
  Plant response rating, Rice: 10
Barnyardgrass [1]; 250 g ai/ha
  Plant response rating, Barnyardgrass: 0
Barnyardgrass [1]; 1000 g ai/ha
  Plant response rating, Barnyardgrass: 30
Barnyardgrass [2]; [3]
  Plant response rating, Barnyardgrass: 0
Barnyardgrass [2]; [4]
  Plant response rating, Barnyardgrass: 30
Barnyardgrass [2]; Postemergence, 500 g ai/ha
  Barnyardgrass plant response rating (0 to 100 scale, 0 is no effect, 100 is complete control): 70
Barnyardgrass [2]; [5]
  Plant response rating, Barnyardgrass: 70
velvetleaf; [3]
  Plant response rating, Velvetleaf: 0
velvetleaf; [4]
  Plant response rating, Velvetleaf: 0
velvetleaf; Postemergence, 500 g ai/ha
  Velvetleaf plant response rating (0 to 100 scale, 0 is no effect, 100 is complete control): 0
velvetleaf; [5]
  Plant response rating, Velvetleaf: 0

## N#Cc1cccc(C2CNC(=O)C2C(=O)Nc2cccc(F)c2F)c1 (racemic) [Compound 73]
sedge, umbrella; 250 g ai/ha
  Plant response rating, Sedge, Umbrella: 0
crabgrass, large; [6]
  Plant response rating, Crabgrass, Large: 50
crabgrass, large; [7]
  Plant response rating, Crabgrass, Large: 80
crabgrass, large; [8]
  Crabgrass, Large plant response rating: 80
crabgrass, large; [9]
  Plant response rating, Crabgrass, Large: 90
corn; [6]
  Plant response rating, Corn: 0
corn; [7]
  Plant response rating, Corn: 0
corn; [8]
  Corn plant response rating: 0
corn; [9]
  Plant response rating, Corn: 0
pigweed; [7]
  Plant response rating, Pigweed: 0
pigweed; [8]
  Pigweed plant response rating: 0
pigweed; [9]
  Plant response rating, Pigweed: 0
wheat; [6]
  Plant response rating, Wheat: 0
wheat; [7]
  Plant response rating, Wheat: 0
wheat; [8]
  Wheat plant response rating: 0
wheat; [9]
  Plant response rating, Wheat: 0
ducksalad; 250 g ai/ha
  Plant response rating, Ducksalad: 60
morningglory; [6]
  Plant response rating, Morningglory: 0
morningglory; [7]
  Plant response rating, Morningglory: 20
morningglory; [8]
  Morningglory plant response rating: 0
morningglory; [9]
  Plant response rating, Morningglory: 0
Giant foxtail; [6]
  Plant response rating, Foxtail, Giant: 30
Giant foxtail; [7]
  Plant response rating, Foxtail, Giant: 80
Giant foxtail; [8]
  Foxtail, Giant plant response rating: 80
Giant foxtail; [9]
  Plant response rating, Foxtail, Giant: 90
rice; 250 g ai/ha
  Plant response rating, Rice: 0
Barnyardgrass [1]; 250 g ai/ha
  Plant response rating, Barnyardgrass: 0
Barnyardgrass [2]; [6]
  Plant response rating, Barnyardgrass: 70
Barnyardgrass [2]; [7]
  Plant response rating, Barnyardgrass: 80
Barnyardgrass [2]; [8]
  Barnyardgrass plant response rating: 50
Barnyardgrass [2]; preemergence, 500 g ai/ha, 0 to 100 scale (0 no effect, 100 complete control)
  Plant response rating, Barnyardgrass: 80
velvetleaf; [6]
  Plant response rating, Velvetleaf: 0
velvetleaf; [7]
  Plant response rating, Velvetleaf: 30
velvetleaf; [8]
  Velvetleaf plant response rating: 0
velvetleaf; [9]
  Plant response rating, Velvetleaf: 0

## O=C1NCC(c2ccc(Cl)c(C(F)(F)F)c2)C1C(=O)Nc1ccccc1C(F)(F)F (racemic) [Compound 269]
sedge, umbrella; 1000 g ai/ha
  Plant response rating, Sedge, Umbrella: 0
crabgrass, large; [4]
  Plant response rating, Crabgrass, Large: 60
crabgrass, large; [7]
  Plant response rating, Crabgrass, Large: 80
crabgrass, large; [10]
  Plant response rating, Crabgrass, Large: 80
crabgrass, large; [5]
  Plant response rating, Crabgrass, Large: 90
corn; [4]
  Plant response rating, Corn: 0
corn; [7]
  Plant response rating, Corn: 20
corn; [10]
  Plant response rating, Corn: 0
corn; [5]
  Plant response rating, Corn: 0
pigweed; [11]
  Plant response rating, Pigweed: 70
pigweed; [7]
  Plant response rating, Pigweed: 60
pigweed; [10]
  Plant response rating, Pigweed: 50
pigweed; [5]
  Plant response rating, Pigweed: 70
wheat; [11]
  Plant response rating, Wheat: 0
wheat; [7]
  Plant response rating, Wheat: 0
wheat; [10]
  Plant response rating, Wheat: 0
wheat; [5]
  Plant response rating, Wheat: 0
ducksalad; 1000 g ai/ha
  Plant response rating, Ducksalad: 100
morningglory; [11]
  Plant response rating, Morningglory: 0
morningglory; [7]
  Plant response rating, Morningglory: 0
morningglory; [10]
  Plant response rating, Morningglory: 0
morningglory; [5]
  Plant response rating, Morningglory: 0
Giant foxtail; [4]
  Plant response rating, Foxtail, Giant: 70
Giant foxtail; [7]
  Plant response rating, Foxtail, Giant: 80
Giant foxtail; [10]
  Plant response rating, Foxtail, Giant: 80
Giant foxtail; [5]
  Plant response rating, Foxtail, Giant: 80
rice; 1000 g ai/ha
  Plant response rating, Rice: 0
Barnyardgrass [1]; 1000 g ai/ha
  Plant response rating, Barnyardgrass: 0
Barnyardgrass [2]; [4]
  Plant response rating, Barnyardgrass: 50
Barnyardgrass [2]; [7]
  Plant response rating, Barnyardgrass: 70
Barnyardgrass [2]; [10]
  Plant response rating, Barnyardgrass: 70
Barnyardgrass [2]; [5]
  Plant response rating, Barnyardgrass: 80
velvetleaf; [10]
  Plant response rating, Velvetleaf: 0
velvetleaf; [5]
  Plant response rating, Velvetleaf: 0
